Measurements taken from patent EP0354453A2, “Antimicrobial agent for animals” (priority 1988, dated 1990).
Values after ≈ are worked out from the molar mass of the structure shown.

Tests used:
Escherichia coli = assay: Effect of oral administration on chicken inoculated with Escherichia coli; assay type: in vivo; settings: for Chickens developing disease in air sac (naked eye observation) / No. of dead chickens: 5 tested chickens
Procedure: Escherichia coli cells collected from infected chicken were cultured overnight in a trypticase soy broth (BBL). 0.2 ml of this culture broth was injected into the trachea of chickens of average body weight of 80 g using a 1 ml disposable injection needle. Beginning 2 hours after the inoculation, feeds to which Compound (1) had been added in the amount of 50 ppm, 25 ppm, or 12.5 ppm were freely given to the chickens for 5 days. Following the administration of Compound (1) the chickens were given feed with no addition of drug for 5 days. The surviving chickens were sacrificed and dissected. After examination of the degree of disease in the air sac, Escherichia coli in the trachea, lung, and air sac were quantitatively determined. […]

Mycoplasma gallisepticum = assay: Effect of oral administration on chicken inoculated with Mycoplasma gallisepticum; assay type: in vivo; settings: for Chickens developing disease in air sac (naked eye observation) / No. of dead chickens: 5 tested chickens
Procedure: Mycoplasma gallisepticum cells collected from chickens having respiratory Mycoplasma infection were cultured for 3 days in a Frey liquid media for Mycoplasma. 0.2 ml of this culture broth was injected into the trachea of chickens of an average body weight of 80 g using a 1 ml disposable injection needle. Beginning from the next day following the inoculation, feeds to which Compound (1) had been added in the amount of 100 ppm, 75 ppm, or 50 ppm were freely given to the chickens for 5 days. Following the administration of Compound (1) the chickens were given feed containing no drug for a further 5 days. The surviving chickens were sacrificed and dissected. After examination of the degree of disease in the air sac, Mycoplasma gallisepticum in the infraorbital sinus, trachea, lung, and air sac were determined. […] TABLE 6 […]

[1] = test system: Bordetella bronchiaseptica AR3; assay: in vitro antimicrobial activity (MIC), agar dilution, Part 1; assay type: cell-based; settings: Bordetella bronchiaseptica AR3, Pig; Mueller Hinton agar, 37°C, 18-24 hours
Procedure: (§1) Test microorganisms listed in Table 2 were cultured overnight in heart infusion nutrient broth (produced by Eiken Chemical Co., Ltd.). Culture broth containing about 10⁸/ml cells was diluted to a volume of 100 times. An aliquot (about 0.05 ml) of the diluted broth was inoculated onto a Mueller Hinton agar plate (produced by Eiken Chemical Co., Ltd.) to which Compound No. 1 was added in a prescribed concentration. […]

[2] = test system: Salmonella typhimurium 101; assay: as above; assay type: cell-based; settings: Salmonella enterica; Salmonella typhimurium 101, Chicken; Mueller Hinton agar, 37°C, 18-24 hours
Procedure: as §1

Escherichia coli 442 = assay: as above; assay type: cell-based; settings: Escherichia coli 442, Chicken; Mueller Hinton agar, 37°C, 18-24 hours
Procedure: as §1

[3] = test system: Staphylococcus aureus Aichi 2; assay: as above; assay type: cell-based; settings: AICHI2; Staphylococcus aureus Aichi 2, Chicken; Mueller Hinton agar, 37°C, 18-24 hours
Procedure: as §1

Escherichia coli 164 = assay: as above; assay type: cell-based; settings: Escherichia coli 164, Pig; Mueller Hinton agar, 37°C, 18-24 hours
Procedure: as §1

[4] = test system: Salmonella typhimurium 595; assay: as above; assay type: cell-based; settings: Salmonella enterica; Salmonella typhimurium 595, Pig; Mueller Hinton agar, 37°C, 18-24 hours
Procedure: as §1

Escherichia coli 15-4 = assay: as above; assay type: cell-based; settings: 154; Escherichia coli 15-4, Cow; Mueller Hinton agar, 37°C, 18-24 hours
Procedure: as §1

MIC [1]: 0.39 µg/mL (≈ 1.08 µM) | MIC [2]: 0.05 µg/mL (≈ 0.138 µM) | MIC (Escherichia coli 442): 0.05 µg/mL (≈ 0.138 µM) | MIC [3]: 0.2 µg/mL (≈ 0.553 µM) | MIC (Escherichia coli 164): 0.1 µg/mL (≈ 0.277 µM) | MIC [4]: 0.1 µg/mL (≈ 0.277 µM) | MIC (Escherichia coli 15-4): 0.1 µg/mL (≈ 0.277 µM)
SMILES: CC1COc2c(N3CCN(C)CC3)c(F)cc3c(=O)c(C(=O)O)cn1c23 (racemic) [Ofloxacin, reference compound]
Escherichia coli collected in Air sac (Escherichia coli; 12.5 ppm in feed for 5 days): 4.20 Logarithmic number of collected cells per 1 g of tissue | Escherichia coli collected in Lung (Escherichia coli; 12.5 ppm in feed for 5 days): 5.26 Logarithmic number of collected cells per 1 g of tissue | Escherichia coli collected in Trachea (Escherichia coli; 12.5 ppm in feed for 5 days): 7.48 Logarithmic number of collected cells per 1 g of tissue | Chickens developing disease in air sac (naked eye observation) (Escherichia coli; 12.5 ppm in feed for 5 days): 3 | No. of dead chickens (Escherichia coli; 12.5 ppm in feed for 5 days): 2 | Escherichia coli collected in Air sac (Escherichia coli; 25 ppm in feed for 5 days): 3.90 Logarithmic number of collected cells per 1 g of tissue | Escherichia coli collected in Lung (Escherichia coli; 25 ppm in feed for 5 days): 1.86 Logarithmic number of collected cells per 1 g of tissue | Escherichia coli collected in Trachea (Escherichia coli; 25 ppm in feed for 5 days): 4.58 Logarithmic number of collected cells per 1 g of tissue | Chickens developing disease in air sac (naked eye observation) (Escherichia coli; 25 ppm in feed for 5 days): 3 | No. of dead chickens (Escherichia coli; 25 ppm in feed for 5 days): 1 | Escherichia coli collected in Air sac (Escherichia coli; 50 ppm in feed for 5 days): 0 Logarithmic number of collected cells per 1 g of tissue | Escherichia coli collected in Lung (Escherichia coli; 50 ppm in feed for 5 days): 0 Logarithmic number of collected cells per 1 g of tissue | Escherichia coli collected in Trachea (Escherichia coli; 50 ppm in feed for 5 days): 0 Logarithmic number of collected cells per 1 g of tissue | Chickens developing disease in air sac (naked eye observation) (Escherichia coli; 50 ppm in feed for 5 days): 2 | No. of dead chickens (Escherichia coli; 50 ppm in feed for 5 days): 1 | Mycoplasma gallisepticum collected in Air sac (Mycoplasma gallisepticum; 50 ppm in feed for 5 days): 3.70 Logarithmic number of collected cells per 1 g of tissue | Mycoplasma gallisepticum collected in Infraorbital sinus (Mycoplasma gallisepticum; 50 ppm in feed for 5 days): 1/5 | Mycoplasma gallisepticum collected in Lung (Mycoplasma gallisepticum; 50 ppm in feed for 5 days): 4.78 Logarithmic number of collected cells per 1 g of tissue | Mycoplasma gallisepticum collected in Trachea (Mycoplasma gallisepticum; 50 ppm in feed for 5 days): 3.64 Logarithmic number of collected cells per 1 g of tissue | Chickens developing disease in air sac (naked eye observation) (Mycoplasma gallisepticum; 50 ppm in feed for 5 days): 1 | No. of dead chickens (Mycoplasma gallisepticum; 50 ppm in feed for 5 days): 0 | Mycoplasma gallisepticum collected in Air sac (Mycoplasma gallisepticum; 75 ppm in feed for 5 days): 0 Logarithmic number of collected cells per 1 g of tissue | Mycoplasma gallisepticum collected in Infraorbital sinus (Mycoplasma gallisepticum; 75 ppm in feed for 5 days): 0/5 | Mycoplasma gallisepticum collected in Lung (Mycoplasma gallisepticum; 75 ppm in feed for 5 days): 4.00 Logarithmic number of collected cells per 1 g of tissue | Mycoplasma gallisepticum collected in Trachea (Mycoplasma gallisepticum; 75 ppm in feed for 5 days): 3.82 Logarithmic number of collected cells per 1 g of tissue | Chickens developing disease in air sac (naked eye observation) (Mycoplasma gallisepticum; 75 ppm in feed for 5 days): 0 | No. of dead chickens (Mycoplasma gallisepticum; 75 ppm in feed for 5 days): 0 | Mycoplasma gallisepticum collected in Air sac (Mycoplasma gallisepticum; 100 ppm in feed for 5 days): 0 Logarithmic number of collected cells per 1 g of tissue | Mycoplasma gallisepticum collected in Infraorbital sinus (Mycoplasma gallisepticum; 100 ppm in feed for 5 days): 0/5 | Mycoplasma gallisepticum collected in Lung (Mycoplasma gallisepticum; 100 ppm in feed for 5 days): 0 Logarithmic number of collected cells per 1 g of tissue | Mycoplasma gallisepticum collected in Trachea (Mycoplasma gallisepticum; 100 ppm in feed for 5 days): 0 Logarithmic number of collected cells per 1 g of tissue | Chickens developing disease in air sac (naked eye observation) (Mycoplasma gallisepticum; 100 ppm in feed for 5 days): 0 | No. of dead chickens (Mycoplasma gallisepticum; 100 ppm in feed for 5 days): 0
